SMILES strings stand for the structures. Where only a bound is given, the exact number is not on record here.

In one experiment the test system is HCT116 cells. The experiment in a line: In vitro cytotoxicity measured by the cell colony formation assay. The conditions noted are these: HCT116 cells, 72 h drug incubation, colonies counted after 7 days; ID50 = drug concentration producing 50% inhibition of colony formation; read-out: IN VITRO ID 50 (nm) HCT116. The experiment is classed as cell-based. The method in brief:
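Colony-forming survival was scored 7 days after a 72 h, 37 °C compound exposure followed by washout into fresh medium.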
With `CC=CC(=O)NC(c1ccco1)C(O)C(=O)OC1CC2(O)C(OC(=O)c3ccccc3)C3C4(OC(C)=O)COC4CC(OC(=O)Nc4ccc(F)c(F)c4)C3(C)C(=O)C(O)C(=C1C)C2(C)C` (stereo not shown) [Compound 5800], the IC50 is under 10 nM.

The same experiment, now with this note: HCT116 cells, 72 h incubation with drug, colonies counted after 7 days; ID50 = drug concentration producing 50% inhibition of colony formation; read-out: IN VITRO ID 50 (nm) HCT116.
Turning to `COC(=O)O[C@H]1C(=O)[C@@]2(C)C([C@H](OC(=O)c3ccccc3)[C@]3(O)C[C@H](OC(=O)[C@H](O)[C@@H](NC(=O)OC(C)(C)C)c4ccc([N+](=O)[O-])cc4)C(C)=C1C3(C)C)[C@]1(OC(C)=O)CO[C@@H]1C[C@@H]2O` (stereo partly shown) [Compound 2088], the IC50 was under 1 nM.

Consider `CC(=O)O[C@@]12CO[C@@H]1C[C@H](OC(=O)OCc1ccccc1)[C@@]1(C)C(=O)[C@H](O)C3=C(C)[C@@H](OC(=O)[C@H](O)[C@@H](NC(=O)C=C(C)C)c4ccco4)C[C@@](O)([C@@H](OC(=O)c4ccccc4)C12)C3(C)C` (stereo partly shown) [Compound 5466], for which the IC50 is under 1 nM.

Regarding `CCOC(=O)O[C@H]1C(=O)[C@@]2(C)C([C@H](OC(=O)c3ccccc3)[C@]3(O)C[C@H](OC(=O)[C@H](O)[C@@H](NC(=O)C=C(C)C)c4cccs4)C(C)=C1C3(C)C)[C@]1(OC(C)=O)CO[C@@H]1C[C@@H]2O` (stereo partly shown) [Compound 4374], the IC50 was under 1 nM.

For the compound `CCOC(=O)O[C@H]1C(=O)[C@@]2(C)C([C@H](OC(=O)c3ccccc3)[C@]3(O)C[C@H](OC(=O)[C@H](O)[C@@H](NC(=O)OC(C)(C)C)c4ccco4)C(C)=C1C3(C)C)[C@]1(OC(C)=O)CO[C@@H]1C[C@@H]2O` (stereo partly shown) [Compound 1822], the IC50 was under 1 nM.

With `CCOC(=O)O[C@H]1C(=O)[C@@]2(C)C([C@H](OC(=O)c3ccccc3)[C@]3(O)C[C@H](OC(=O)[C@H](O)[C@@H](NC(=O)OC(C)(C)C)c4ccccn4)C(C)=C1C3(C)C)[C@]1(OC(C)=O)CO[C@@H]1C[C@@H]2O` (stereo partly shown) [Compound 1799], the IC50 is under 1 nM.

`COC(=O)O[C@H]1C[C@H]2OC[C@@]2(OC(C)=O)C2[C@H](OC(=O)c3ccccc3)[C@]3(O)C[C@H](OC(=O)[C@H](O)[C@@H](NC(=O)OC(C)(C)C)c4ccco4)C(C)=C([C@@H](O)C(=O)[C@@]21C)C3(C)C` (stereo partly shown) [Compound 4533]: the IC50 is under 1 nM.

As for `CCCC(=O)N[C@@H](c1cccs1)[C@@H](O)C(=O)O[C@H]1C[C@@]2(O)[C@@H](OC(=O)c3ccccc3)C3[C@](C)(C(=O)[C@H](OC(=O)OCC)C(=C1C)C2(C)C)[C@@H](O)C[C@H]1OC[C@@]31OC(C)=O` (stereo partly shown) [Compound 3155], the IC50 is under 1 nM.

In the case of `COC(=O)O[C@H]1C[C@H]2OC[C@@]2(OC(C)=O)C2[C@H](OC(=O)c3ccccc3)[C@]3(O)C[C@H](OC(=O)[C@H](O)[C@@H](NC(=O)c4ccco4)c4cccs4)C(C)=C([C@@H](O)C(=O)[C@@]21C)C3(C)C` (stereo partly shown) [Compound 4222], the IC50 is under 1 nM.

Turning to `C/C=C/C(=O)N[C@@H](c1ccoc1)[C@@H](O)C(=O)O[C@H]1C[C@@]2(O)[C@@H](OC(=O)c3ccccc3)C3[C@](C)(C(=O)[C@H](O)C(=C1C)C2(C)C)[C@@H](OC(=O)OCC)C[C@H]1OC[C@@]31OC(C)=O` (stereo partly shown) [Compound 4904], the IC50 is under 10 nM.

Take `CCOC(=O)O[C@H]1C(=O)[C@@]2(C)C([C@H](OC(=O)c3ccccc3)[C@]3(O)C[C@H](OC(=O)[C@H](O)[C@@H](NC(=O)c4cccs4)c4ccco4)C(C)=C1C3(C)C)[C@]1(OC(C)=O)CO[C@@H]1C[C@@H]2O` (stereo partly shown) [Compound 4088]: the IC50 was under 10 nM.

Still in this experiment, the particulars now being: HCT116 cells, colony formation, 72 h incubation with drug, colonies counted after 7 days; ID50 = drug concentration producing 50% inhibition of colony formation; read-out: IN VITRO ID 50 (nm) HCT116.
In the case of `CCNC(=O)O[C@H]1C(=O)[C@@]2(C)C([C@H](OC(=O)c3ccccc3)[C@]3(O)C[C@H](OC(=O)[C@H](O)[C@@H](NC(=O)OC(C)(C)C)c4cccnc4)C(C)=C1C3(C)C)[C@]1(OC(C)=O)CO[C@@H]1C[C@@H]2O` (stereo partly shown) [Compound 2616], the IC50 was 27 nM.

Turning to `CCNC(=O)O[C@H]1C(=O)[C@@]2(C)C([C@H](OC(=O)c3ccccc3)[C@]3(O)C[C@H](OC(=O)[C@H](O)[C@@H](NC(=O)OC(C)(C)C)c4ccc([N+](=O)[O-])cc4)C(C)=C1C3(C)C)[C@]1(OC(C)=O)CO[C@@H]1C[C@@H]2O` (stereo partly shown) [Compound 2743], the IC50 was under 1 nM.

Still in this experiment, the particulars now being: HCT116 colony formation; 72 h drug incubation, colonies counted after 7 days; Example 5, C-7 ester/C-10 hydroxy taxanes; read-out: IN VITRO ID 50 (nm) HCT116.
As to `C/C=C/C(=O)N[C@@H](c1ccco1)[C@@H](O)C(=O)O[C@H]1C[C@@]2(O)[C@@H](OC(=O)c3ccccc3)C3[C@](C)(C(=O)[C@H](O)C(=C1C)C2(C)C)[C@@H](OC(=O)CC)C[C@H]1OC[C@@]31OC(C)=O` (stereo partly shown) [Compound 3708], the IC50 was under 1 nM.

`CCCC(=O)O[C@H]1C[C@H]2OC[C@@]2(OC(C)=O)C2[C@H](OC(=O)c3ccccc3)[C@]3(O)C[C@H](OC(=O)[C@H](O)[C@@H](NC(=O)OC(C)(C)C)c4cccs4)C(C)=C([C@@H](O)C(=O)[C@@]21C)C3(C)C` (stereo partly shown) [Compound 4256]: the IC50 is under 1 nM.

As to `C/C=C/C(=O)N[C@@H](c1ccoc1)[C@@H](O)C(=O)O[C@H]1C[C@@]2(O)[C@@H](OC(=O)c3ccccc3)C3[C@](C)(C(=O)[C@H](O)C(=C1C)C2(C)C)[C@@H](OC(=O)CCC)C[C@H]1OC[C@@]31OC(C)=O` (stereo partly shown) [Compound 4939], the IC50 is under 1 nM.

Regarding `CCC(=O)O[C@H]1C[C@H]2OC[C@@]2(OC(C)=O)C2[C@H](OC(=O)c3ccccc3)[C@]3(O)C[C@H](OC(=O)[C@H](O)[C@@H](NC(=O)c4cccnc4)c4cccs4)C(C)=C([C@@H](O)C(=O)[C@@]21C)C3(C)C` (stereo partly shown) [Compound 4106], the IC50 was under 10 nM.

With `CCCC(=O)O[C@H]1C[C@H]2OC[C@@]2(OC(C)=O)C2[C@H](OC(=O)c3ccccc3)[C@]3(O)C[C@H](OC(=O)[C@H](O)[C@@H](NC(=O)OCC(C)C)c4ccoc4)C(C)=C([C@@H](O)C(=O)[C@@]21C)C3(C)C` (stereo partly shown) [Compound 4828], the IC50 is under 10 nM.

Staying with this experiment, now noted: HCT116 colony formation; 72 h drug incubation, colonies counted after 7 days; Example 10, C-10 ester/C-7 hydroxy taxanes; read-out: IN VITRO ID 50 (nm) HCT116.
For `CCC(=O)O[C@H]1C(=O)[C@@]2(C)C([C@H](OC(=O)c3ccccc3)[C@]3(O)C[C@H](OC(=O)[C@H](O)[C@@H](NC(=O)OC(C)(C)C)c4cccnc4)C(C)=C1C3(C)C)[C@]1(OC(C)=O)CO[C@@H]1C[C@@H]2O` (stereo partly shown) [Compound 0517], the IC50 is under 10 nM.

As for `CCCC(=O)O[C@H]1C(=O)[C@@]2(C)C([C@H](OC(=O)c3ccccc3)[C@]3(O)C[C@H](OC(=O)[C@H](O)[C@@H](NC(=O)OC(C)(C)C)c4ccoc4)C(C)=C1C3(C)C)[C@]1(OC(C)=O)CO[C@@H]1C[C@@H]2O` (stereo partly shown) [Compound 0999], the IC50 is under 1 nM.

For the compound `CCC(=O)O[C@H]1C(=O)[C@@]2(C)C([C@H](OC(=O)c3ccccc3)[C@]3(O)C[C@H](OC(=O)[C@H](O)[C@@H](NC(=O)C=C(C)C)c4cccs4)C(C)=C1C3(C)C)[C@]1(OC(C)=O)CO[C@@H]1C[C@@H]2O` (stereo partly shown) [Compound 4335], the IC50 was under 1 nM.

For the compound `C/C=C/C(=O)O[C@H]1C(=O)[C@@]2(C)C([C@H](OC(=O)c3ccccc3)[C@]3(O)C[C@H](OC(=O)[C@H](O)[C@@H](NC(=O)OC(C)(C)C)C(C)C)C(C)=C1C3(C)C)[C@]1(OC(C)=O)CO[C@@H]1C[C@@H]2O` (stereo partly shown) [Compound 2413], the IC50 was under 10 nM.

Regarding `CC(=O)OC12COC1CC(O)C1(C)C(=O)C(OC(=O)c3ccco3)C3=C(C)C(OC(=O)C(O)C(NC(=O)OC(C)(C)C)c4cccs4)CC(O)(C(OC(=O)c4ccccc4)C21)C3(C)C` (stereo not shown) [Compound 2164], the IC50 is under 1 nM.

For `CCCC(=O)O[C@H]1C(=O)[C@@]2(C)C([C@H](OC(=O)c3ccccc3)[C@]3(O)C[C@H](OC(=O)[C@H](O)[C@@H](NC(=O)OCC)c4ccco4)C(C)=C1C3(C)C)[C@]1(OC(C)=O)CO[C@@H]1C[C@@H]2O` (stereo partly shown) [Compound 3693], the IC50 was under 1 nM.

With `CCCC(=O)N[C@@H](c1cccs1)[C@@H](O)C(=O)O[C@H]1C[C@@]2(O)[C@@H](OC(=O)c3ccccc3)C3[C@](C)(C(=O)[C@H](OC(=O)CCC)C(=C1C)C2(C)C)[C@@H](O)C[C@H]1OC[C@@]31OC(C)=O` (stereo partly shown) [Compound 3314], the IC50 is under 1 nM.

Turning to `CC(=O)OC12COC1CC(O)C1(C)C(=O)C(OC(=O)c3cccs3)C3=C(C)C(OC(=O)C(O)C(NC(=O)OC(C)(C)C)c4ccncc4)CC(O)(C(OC(=O)c4ccccc4)C21)C3(C)C` (stereo not shown) [Compound 1954], the IC50 is under 1 nM.

For the compound `CC(=O)OC12COC1CC(O)C1(C)C(=O)C(OC(=O)c3cccs3)C3=C(C)C(OC(=O)C(O)C(NC(=O)OC(C)(C)C)c4ccccc4)CC(O)(C(OC(=O)c4ccccc4)C21)C3(C)C` (stereo not shown) [Compound 1988], the IC50 was under 10 nM.

For `CC(=O)O[C@@]12CO[C@@H]1C[C@H](O)[C@@]1(C)C(=O)[C@H](OC(=O)C3CC3)C3=C(C)[C@@H](OC(=O)[C@H](O)[C@@H](NC(=O)OCC(C)C)c4ccsc4)C[C@@](O)([C@@H](OC(=O)c4ccccc4)C12)C3(C)C` (stereo partly shown) [Compound 5011], the IC50 is under 10 nM.

For the compound `CC(=O)O[C@@]12CO[C@@H]1C[C@H](O)[C@@]1(C)C(=O)[C@H](OC(=O)C3CC3)C3=C(C)[C@@H](OC(=O)[C@H](O)[C@@H](NC(=O)OC(C)(C)C)c4ccoc4)C[C@@](O)([C@@H](OC(=O)c4ccccc4)C12)C3(C)C` (stereo partly shown) [Compound 2781], the IC50 is under 1 nM.

The same experiment, now with this note: HCT116 colony formation; 72 h drug incubation, colonies counted after 7 days; Example 15, C-7 substituted acetate/C-10 hydroxy taxanes; read-out: IN VITRO ID 50 (nm) HCT116.
Take `COCC(=O)O[C@H]1C[C@H]2OC[C@@]2(OC(C)=O)C2[C@H](OC(=O)c3ccccc3)[C@]3(O)C[C@H](OC(=O)[C@H](O)[C@@H](NC(=O)OC(C)(C)C)c4ccco4)C(C)=C([C@@H](O)C(=O)[C@@]21C)C3(C)C` (stereo partly shown) [Compound 5445]: the IC50 was under 1 nM.

The same experiment, now with this note: Homo sapiens, HCT-116; HCT116 colony formation; 72 h drug incubation, colonies counted after 7 days; Example 5, C-7 ester/C-10 hydroxy taxanes; read-out: IN VITRO ID 50 (nm) HCT116.
Turning to `CC(=O)O[C@@]12CO[C@@H]1C[C@H](O)[C@@]1(C)C(=O)[C@H](O)C3=C(C)[C@@H](OC(=O)[C@H](O)[C@@H](NC(=O)OC(C)(C)C)c4ccccc4)C[C@@](O)([C@@H](OC(=O)c4ccccc4)[C@H]21)C3(C)C` [docetaxel, reference compound], the IC50 was 0.6 nM.

The values above are taken from patent US6638973B2, “Taxane formulations” (FSU Research Foundation, Inc., priority 2000, dated 2003).
